Laboratory results published in paper PMC2974656, “Selective killing of human immunodeficiency virus infected cells by non-nucleoside reverse transcriptase inhibitor-induced activation of HIV protease” (Retrovirology, 2010).
Where two headings read alike, the source gives them in different places.

Experiments:
[1] = tested on: intracellular HIV PR activity; parameters: method as in PMID 17096588; details: 5 μM NNRTI; cited from earlier work
[2] = tested on: Gag processing in MT-4-IIIB cells; assay: Immunoblot of Gag processing in chronically infected MT-4 cells; assay type: cell-based, HIV-1
[3] = tested on: HXB2D-EGFP infected CD4 positive cells isolated from PBMC; assay: Killing of HIV-1 infected CD4 positive primary T-cells, flow cytometry; assay type: cell-based, human
Description: To validate our results obtained for the persistently infected cell line in a more relevant cell system we performed additional infection experiments using human peripheral blood mononuclear cells (PBMC). […]. PBMC isolated from healthy blood donors were activated and infected with a replication competent HIV-1 derivative which carries a gfp gene in the nef locus. The co-receptor antagonist AMD-3100 was added at day 2 post infection to prevent further viral spread. This was done to distinguish the proposed killing of infected cells from the inhibitory effect of NNRTIs and PIs on virus replication. […]. […] Similar results were obtained upon infection of CD4-positive primary T-cells with an EGFP-expressing virus (Figure 4B).
Figure 4 NNRTI induced selective killing of HIV-1 infected primary human cells. (A) PBMC prepared from buffy coats of healthy blood donors were infected with HIV-1AGFP. At day 2 post infection, 100 ng/ml AMD-3100 was added to all samples to prevent further infection. […] After further incubation for 5 days, cells were harvested and analyzed for the proportion of infected GFP expressing cells by flow cytometry. […] P-values were calculated using a two-tailed unpaired t-test (GraphPad Prism). Values were normalized to the respective solvent control. (B) CD4 positive cells isolated from PBMC were infected with HXB2D-EGFP. […] After further incubation for 3 days, cells were harvested and analyzed for the proportion of infected cells by flow cytometry. […] Asterisks: non-infected controls.
Peripheral blood mononuclear cells (PBMC) were purified from buffy coats of HIV-negative blood donors, grown in supplemented RPMI 1640 and stimulated by the addition of 10 ng/ml IL-2 (Biomol) and 2 μg/ml PHA (Sigma). PBMC pooled from two donors each were used for infection. […] For infection of PBMC, the HIV-1 derivatives HIV-1-AGFP [49] carrying the gfp gene fused to the codon for amino acid 16 of Nef in pNL4-3, or HXB2D-EGFP [60], which carries an egfp gene in the place of the viral nef open reading frame, were used as indicated. […]

293T cells = assay: Microscopically detectable impairment of cell growth of transfected 293T cells; assay type: cell-based; details: high NNRTI concentrations (5 μM and above)
Description: At 44 h post transfection, cell lysates were analyzed for β-Gal activity.

[4] = tested on: intracellular Gag processing by HIV PR; assay type: cell-based, HIV-1; details: for Enhancement of alpha complementation: 0.03 to 10 μM NNRTI, result in words
Description: In previous studies, high concentrations of NNRTI (5 μM) were required to observe NNRTI mediated activation of intracellular HIV PR activity. […]. Towards this end, we developed a biochemical assay for gel independent quantitation of intracellular Gag processing by HIV PR in the context of a virus producing cell. We had previously shown that additional protein domains, consisting of small epitope tags or even the 27 kDa green fluorescent protein (EGFP), can be inserted between the MA and CA domains of the Gag and Gag-Pol polyproteins without affecting polyprotein production or processing by HIV PR [36]. Based on this, we designed a HIV reporter construct which contained a small N-terminal fragment ('alpha peptide') of Escherichia coli beta-galactosidase (β-Gal), flanked by two HIV PR recognition sites, between the MA and CA coding sequences of Gag (Figure 1A). […] This so called alpha complementation principle can be exploited for use in mammalian cells and has been employed for the establishment of various cell based biochemical assay systems. We reasoned that embedding of the small alpha peptide within the multi-domain polyproteins Gag or Gag-Pol, respectively, should impair its productive association with the omega subunit, while proteolytic release of the alpha peptide from the polyprotein by PR would allow the formation of enzymatically active β-Gal. This should allow us to monitor intracellular Gag and Gag-Pol processing through increased β-Gal activity.
Reconstituted β-Gal activity in cell lysates was measured by cleavage of the chromogenic substrate CPRG [42] as described in Methods.
The activity of β-Gal in cell lysates from transfected 293T cells was measured by enzymatic cleavage of the chromogenic β-Gal substrate chlorphenolred-β-D-galactopyranoside (CPRG, Roche; [42]). At 44 h post transfection, cells were briefly rinsed with PBS and suspended in reporter gene assay lysis buffer (Roche, 600 μl per 6-well dish) supplemented with a protease inhibitor mix (Roche). Cell suspensions were incubated for 10 min at room temperature and cell debris was subsequently removed by brief centrifugation. Five μl of supernatant were diluted in 96-well plates with 95 μl CPRG reaction buffer (50 mM potassium phosphate, pH 7.5, 1 mM MgCl2) and pre-warmed for 5 min to 37°C. 100 μl of pre-warmed reaction mix (100 μM CPRG in CPRG reaction buffer supplemented with protease inhibitor cocktail and 40 μM β-mercaptoethanol) were added and β-Gal mediated cleavage of CPRG was monitored by recording absorption at 592 nm every 2 min for 20 min at 37°C using a TECAN Safire multi-well reader. OD592 values were plotted over time and relative reaction rates (OD592/min) were determined from the initial linear velocities.

HIV-1IIIB = assay: Direct antiviral activity: MT4-LTR-EGFP cells infected with HIV-1IIIB, EGFP fluorescence; assay type: cell-based; details: read-out: Inhibition of HIV replication in vitro EC50
Description: After 3 days of incubation, infected cells were quantified by determination of total EGFP fluorescence per well based on microscopy and subsequent image analysis. Threshold values were determined from the average pixel value plus 6 standard deviations from the uninfected control wells, and the median threshold from all control wells on a plate was defined as baseline GFP expression. Intensity values for the sample wells were then determined by subtracting the background threshold from each pixel value obtained from the image of the respective well and calculating the sum of net pixel intensities. Percent inhibition was calculated as 100 * (1 - (Sample - CC)/(VC - CC)).

[5] = Cytotoxicity on uninfected control cells, EGFP fluorescence per well; assay type: cell-based; details: human
Description: (§1) The cytotoxicity of inhibitors was determined in parallel on MT4-CMV-EGFP control cells and on MT4-LTR-EGFP-IIIB virus producing cells, respectively.

RT heterodimer (p66/p51) = biological target: T1, RT heterodimer (p66/p51) (Human immunodeficiency virus type 1 group M subtype B, UniProt P04585); assay: cell-based; assay type: cell-based, HIV-1; details: for Promotion of RT dimerization, in words: summary of Table 1
T1 construct: the bait protein (p66) was fused to the C-terminus of a chimeric receptor; expressed in transfected cells; host or cells: mammalian cells
Source text: RT heterodimer formation was monitored using a mammalian two hybrid system described previously. In brief, the bait protein (p66) was fused to the C-terminus of a chimeric receptor consisting of the extracellular part of the erythropoietin receptor and the intracellular part of the leptin receptor incapable of STAT activation. The prey protein (p51) was coupled to a part of the cytoplasmic tail of the gp130 chain carrying several STAT3 recruitment domains. Interaction of bait and prey protein leads to functional complementation of STAT3 activity, which results in Epo dependent induction of a STAT3-responsive luciferase reporter gene. Enhancement of this interaction by the addition of compounds can thus be measured by an increase of luciferase expression.

HIV-1AGFP infected PBMC = assay: Killing of HIV-1 infected PBMC, proportion of GFP expressing cells by flow cytometry; assay type: cell-based, human; details: 1 μM NNRTI, added day 2 post infection with AMD-3100, 5 days
Description: PBMC isolated from healthy blood donors were activated and infected with a replication competent HIV-1 derivative which carries a gfp gene in the nef locus [49]. The co-receptor antagonist AMD-3100 was added at day 2 post infection to prevent further viral spread.

[6] = tested on: MT4-CMV-EGFP control cells; assay: Cytotoxicity on uninfected control cells, EGFP fluorescence per well; assay type: cell-based
Description: as §1

[7] = tested on: MT4-LTR-EGFP-IIIB HIV-1 producing cells; assay: in vitro; assay type: cell-based; details: for CC50: 4 days; for Cytotoxicity on MT4-LTR-EGFP-IIIB cells, in words: summary of Table 1
Description: as §1

in vitro = assay type: cell-based; details: human, 4 days, no DRV; mean ± SD; tested up to 10 μM; read-out: Cytotoxicity on MT4-LTR-EGFP-IIIB HIV-1 producing cells CC50
Description: as §1

[8] = biological target: omega fragment of beta-galactosidase (inactive fragment lacking amino acids 11-41), encoded by pCMVω (Escherichia coli)
[9] = 293T cells, 44 h post transfection
[10] = Human immunodeficiency virus 1, 72 h, MT4-LTR-EGFP cells, HIV-1IIIB MOI 0.01, 3 days, mean ± SD of three or more measurements
[11] = MT4-CMV-EGFP control cells (uninfected), 4 days, mean ± SD, tested up to 10 μM, read-out: Cytotoxicity on MT4-CMV-EGFP control cells CC50
[12] = MT4-LTR-EGFP cells, HIV-1IIIB MOI 0.01, 3 days, mean ± SD of three or more measurements
[13] = no DRV, mean ± SD, tested up to 10 μM, read-out: Cytotoxicity on MT4-LTR-EGFP-IIIB HIV-1 producing cells CC50
[14] = concentration enhancing luciferase signal by 50% over control, read-out: Enhancement of RT-Dimerization EC50

## CC(C)Nc1cccnc1N1CCN(C(=O)c2cc3cc(NS(C)(=O)=O)ccc3[nH]2)CC1 [DLV, delavirdine]
[1]
  Stimulation of Gag or Gag-Pol processing: did not stimulate

## CC(C)CN(C[C@@H](O)[C@H](Cc1ccccc1)NC(=O)O[C@H]1CO[C@H]2OCC[C@H]21)S(=O)(=O)c1ccc(N)cc1 [DRV, darunavir]
[2]; 200 nM DRV
  Gag processing under DRV treatment: impaired
[3]; 100 nM DRV + 1 μM NNRTI + 1 μM AZT
  Effect of DRV on the NNRTI effect in CD4-positive primary T-cells: completely reversed

## Cc1cc(C#N)cc(C)c1Oc1nc(Nc2ccc(C#N)cc2)nc(N)c1Br [ETV, etravirine]
293T cells
  Impairment of cell growth with decrease in β-Gal activity indicative of cytotoxic effects: most pronounced
[4]; [9]
  Concentration required to achieve the maximal effect on β-Gal activity: ~ 1 μM
HIV-1IIIB; [10]
  EC50: 3.2 ± 5 nM
[5]; [11]
  CC50 at 4 days: > 10000 nM
RT heterodimer (p66/p51)
  EC50: 270 nM

## Cc1cc(S(N)(=O)=O)ccc1NC(=O)COc1ccc(Cl)cc1C(=O)c1cc(Cl)cc(C#N)c1 [GW-678248]
[2]; 1 μM, day 2 post addition
  NNRTI mediated enhancement of Gag processing in virus producing cells: decreased ratio of Gag to intermediate and fully mature processing products
HIV-1AGFP infected PBMC
  Infected primary cells (PBMC) as compared with the control: significant reduction
[4]; [9]
  Concentration showing strong β-Gal activity enhancement: ~ 250 nM
HIV-1IIIB; [12]
  EC50: 0.84 ± 0.25 nM
[6]
  CC50: > 10000 nM
[3]; 1 μM NNRTI + 1 μM AZT, 3 days
  Cytotoxicity on infected CD4-positive primary T-cells: PR dependent cytotoxicity
[7]; [13]
  CC50: 630 ± 290 nM
[7]; read-out: CC50 on virus producing cells in the absence of DRV, one representative experiment (Fig. 3C), 4 parameter fit
  CC50: 350 nM
[7]
  Cytotoxicity on MT4-LTR-EGFP-IIIB cells, in words: submicromolar range
RT heterodimer (p66/p51); [14]
  EC50: 3.2 nM
RT heterodimer (p66/p51)
  Promotion of RT dimerization, in words: low nM range

## COP(=O)(c1cc(C)cc(/C=C/C#N)c1)c1c(C(N)=O)[nH]c2ccc(Cl)cc12 (centres unmarked) [IDX-12899]
[4]; [9]
  Concentration showing strong β-Gal activity enhancement: ~ 250 nM
HIV-1IIIB; [12]
  EC50: 1.9 ± 1.3 nM
[6]
  CC50: > 10000 nM
[7]; [13]
  CC50: 290 ± 210 nM
[7]
  Cytotoxicity on MT4-LTR-EGFP-IIIB cells, in words: submicromolar range
RT heterodimer (p66/p51); [14]
  EC50: 4.6 nM
RT heterodimer (p66/p51)
  Promotion of RT dimerization, in words: low nM range

## Cc1ccnc2c1NC(=O)c1cccnc1N2C1CC1 [NVP, nevirapine]
[4]
  Enhancement of alpha complementation: little or no enhancement
HIV-1IIIB; [10]
  EC50: 42 ± 20 nM
[5]; [11]
  CC50 at 4 days: > 10000 nM
[1]
  Stimulation of Gag or Gag-Pol processing: did not stimulate

## Cc1cc(C)c(Nc2ccnc(Nc3ccc(C#N)cc3)n2)c(C)c1 [TMC-120]
293T cells
  Impairment of cell growth with decrease in β-Gal activity indicative of cytotoxic effects: most pronounced
[4]
  Enhancement of alpha complementation: little or no enhancement
HIV-1IIIB; [10]
  EC50: 1.7 ± 1.4 nM
[5]; [11]
  CC50 at 4 days: 3020 ± 900 nM
[6]; text summary of Table 1, tested range up to 10 μM
  Cytotoxicity on uninfected MT4-CMV-EGFP control cells, in words: comparable toxicity
In vitro
  CC50 at 4 days: 2560 ± 740 nM
[7]
  Cytotoxicity on MT4-LTR-EGFP-IIIB cells, in words: displayed toxicity
[1]
  Stimulation of Gag or Gag-Pol processing: stimulation of Gag processing

## CCc1nn(CCO)c(CC)c1Oc1cc(C#N)cc(C#N)c1 [UK-453061]
[4]
  Enhancement of alpha complementation: little or no enhancement
HIV-1IIIB; Human immunodeficiency virus 1, 72 h
  EC50: 7.5 ± 1.4 nM
[5]
  CC50 at 4 days: > 10000 nM
RT heterodimer (p66/p51)
  EC50: 150 nM

## alpha peptide of Escherichia coli beta-galactosidase (amino acids 1-51), released from Gagα by HIV-1 (from UniProt P00722 1-51)
[8]
  β-Gal activity (relative rate of CPRG cleavage) in lysates of 293T cells co-transfected with pCMVω and pCHIV.MAα, DMSO control: 0.109 min^-1

## modified Gagα precursor: HIV-1 Gag polyprotein with the β-Gal alpha peptide inserted between MA and CA (from pCHIV.MAα) (from UniProt P12493;P00722)
[8]
  β-Gal activity (relative rate of CPRG cleavage) in lysates of 293T cells co-transfected with pCMVω and pCHIV.MAα, grown with 2 μM LPV (Gagα processing nearly completely blocked): 0.054 min^-1
